Measured values reported in patent publication US20140031217A1, “HERBICIDAL COMPOSITIONS COMPRISING 4-AMINO-3-CHLORO-5-FLUORO-6-(4-CHLORO-2-FLUORO-3-METHOXYPHENYL)PYRIDINE-2-CARBOXYLIC ACID OR A DERIVATIVE THEREOF AND AUXIN TRANSPORT INHIBITORS” (DOW AGROSCIENCES LLC, priority 2012, published 2014).

Assays:
ECHOR = assay: In-water applied (paddy) greenhouse weed control, ECHOR; format: in vivo, Echinochloa oryzoides (Ard.) Fritsch
Method: (§1) Weed seeds or nutlets of the desired test plant species were planted in puddled soil (mud) prepared by mixing a shredded, non-sterilized mineral soil (50.5 percent silt, 25.5 percent clay, and 24 percent sand, with a pH of about 7.6 and an organic matter content of about 2.9 percent) and water at a 1:1 volumetric ratio. The prepared mud was dispensed in 365 mL aliquots into 16-ounce (oz.) non-perforated plastic pots with a surface area of 86.59 square centimeters (cm^2) leaving a headspace of 3 centimeters (cm) in each pot. Mud was allowed to dry overnight prior to planting or transplanting. Rice seeds were planted in Sun Gro MetroMix® 306 planting mixture, which typically has a pH of 6.0 to 6.8 and an organic matter content of about 30 percent, in plastic plug trays. Seedlings at the second or third leaf stage of growth were transplanted into 840 mL of mud contained in 32-oz. non-perforated plastic pots with a surface area of 86.59 cm^2 4 days prior to herbicide application. The paddy was created by filling the headspace of the pots with 2.5 to 3 cm of water. When required to ensure good germination and healthy plants, a fungicide treatment and/or other chemical or physical treatment was applied. The plants were grown for 4-22 days in a greenhouse with an approximate 14 h photoperiod which was maintained at about 29′C during the day and 26° C. during the night. Nutrients were added as Osmocote® (19:6:12, N:P:K+minor nutrients) at 2 g per 16-oz. pot and 4 g per 960-mL 32-oz. pot. Water was added on a regular basis to maintain the paddy flood, and supplemental lighting was provided with overhead metal halide 1000-Watt lamps as necessary. The plants were employed for testing when they reached the second or third true leaf stage.
(§2) Treatments consisted of the acid or esters of 4-amino-3-chloro-5-fluoro-6-(4-chloro-2-fluoro-3-methoxy-phenyl)pyridine-2-carboxylic acid (compound A) each formulated as an SC and various herbicidal components alone and in combination. Forms of compound A were applied on an acid equivalent basis.
(§3) Other herbicidal components were applied on an active ingredient basis and included auxin transport inhibiting (ATI) herbicides chlorflurenol-methyl (technical material), chlorflurenol (technical material), diflufenzopyr (technical material), dilfufenzopyr sodium (technical material), flurenol-methyl (technical material,) and naptalam (technical material).
(§4) Treatment requirements for each compound or herbicidal component were calculated based upon the rates being tested, the concentration of active ingredient or acid equivalent in the formulation, an application volume of 2 mL per component per pot, and an application area of 86.59 cm^2 per pot.
(§5) For formulated compounds, a measured amount was placed in an individual 100 or 200 mL glass vial and was dissolved in a volume of 1.25% (v/v) Agri-Dex® crop oil concentrate to obtain application solutions.
(§6) For technical grade compounds, a weighed amount was placed in an individual 100 to 200 mL glass vial and was dissolved in a volume of acetone to obtain concentrated stock solutions. […] The concentrated stock solutions obtained were diluted with an equivalent volume of an aqueous mixture containing 2.5% (v/v) crop oil concentrate so that the final application solutions contained 1.25% (v/v) crop oil concentrate.
(§7) Applications were made by injecting with a pipetter appropriate amounts of the application solutions, individually and sequentially, into the aqueous layer of the paddy. Control plants were treated in the same manner with the solvent blank. Applications were made so that all treated plant material received the same concentrations of acetone and crop oil concentrate.
(§8) The treated plants and control plants were placed in a greenhouse as described above and water was added as needed to maintain a paddy flood. […]

FIMMI = assay: In-water applied (paddy) greenhouse weed control, FIMMI; format: in vivo, Fimbristylis miliacea (L.) Vahl; conditions: 19 DAA
Method: as §1, §2, §3, §4, §5, §6, §7, §8

Structure (SMILES) | Visual Weed Control (%) Obs (ECHOR; 20 DAA, 8.75 gae/ha) | Visual Weed Control (%) Obs (ECHOR; 20 DAA, 17.5 gae/ha) | Visual Weed Control (%) Obs (ECHOR; 20 DAA, 35 gae/ha) | Visual Weed Control (%) Obs (ECHOR; 22 DAA, 8.75 gae/ha) | Visual Weed Control (%) Obs (ECHOR; 22 DAA, 17.5 gae/ha) | Visual Weed Control (%) Obs (ECHOR; 22 DAA, 35 gae/ha) | Visual Weed Control (%) Obs (ECHOR; 19 DAA, 32 gae/ha) | Visual Weed Control (%) Obs (ECHOR; 20 DAA, 4.38 gae/ha) | Visual Weed Control (%) Obs (FIMMI; 8 gae/ha) | Visual Weed Control (%) Obs (FIMMI; 16 gae/ha) | Visual Weed Control (%) Obs (FIMMI; 32 gae/ha)
COc1c(Cl)ccc(-c2nc(C(=O)O)c(Cl)c(N)c2F)c1F [Compound A Acid, 4-amino-3-chloro-6-(4-chloro-2-fluoro-3-methoxyphenyl)-5-fluoropyridine-2-carboxylic acid] | 10% | 15% | 25% | 0% | 20% | 20% |  |  |  |  | 
COc1c(Cl)ccc(-c2nc(C(=O)OCc3ccccc3)c(Cl)c(N)c2F)c1F [Compound A Benzyl Ester] | 15% |  |  |  |  |  | 25% | 10% | 0% | 0% | 85%
